This is an account of results in patent US8999930B2, “Soluble hydrophobic core carrier compositions for delivery of therapeutic agents, methods of making and using the same” (PharmaIN Corporation, priority 2008, dated 2015).

This test is described as follows: Binding of load molecules to 20PLPEG555C18 carrier (100 kDa filtration, free load by HPLC, Scatchard plot). The conditions noted are these: for binding affinity to carrier, in words: strong = Kd less than 100 uM, carrier 20 kDa polylysine, 55% 5 kDa MPEGsuccinate, remainder stearic acid.
Where [1] appears, read: Kd to the 20PLPRG555C18, Table 4, read-out: Dissociation Constant (Kd).

Read-outs that look alike come from different tables or passages of the source. Where a SMILES comes first, the peptide text is derived from it. Bridges are numbered along the chain shown (N, C = ends).

Experimental: Load molecules of various concentrations were added to the tubes so that the corresponding weight of load molecules will be between 2 to 30% of the weight of the carrier. To each tube, 25 ul of 10× Phosphate buffered saline was added and the total volume of the solution was made up to 250 ul. The solutions were incubated for 2 hours, followed by filtration through a 100 kDa molecular weight cut-off filter made up of regenerated cellulose (Microcon Ultracell YM-100; Millipore, Bedford, Mass.). The free unbound load molecules in the filtrate were analyzed by reverse phase HPLC using the conditions described above to generate Table 3. The total amount of load molecule loaded or the control is represented by the filtrate of the solution without the carrier. The amount of load molecules bound to the carrier is represented by the difference in the amount of load molecules between the filtrate without the carrier and the filtrate with the carrier. Prior to this analysis, the background filter binding was determined and accounted for whenever significant filter binding was found.

For `COc1cccc2c1C(=O)c1c(O)c3c(c(O)c1C2=O)C[C@@](O)(C(=O)CO)C[C@@H]3O[C@H]1C[C@H](N)[C@H](O)[C@H](C)O1` [Doxorubicin, reference compound], the “binding affinity to carrier, in words” value is “did not bind with strong affinity”. In addition, under setting [1], the Kd was over 100 µM. Further, where the note is “Ten mg/ml (30 uM) of Carrier loaded with various concentration of doxorubicin, read-out: apparent Kd (Scatchard plot)”, the Kd was determined as 315 µM.
With `NCCCC[C@H](NC(=O)[C@@H]1CCCN1C(=O)[C@@H]1CSSC[C@H](NC(=O)CNC(=O)CNC(=O)CN)C(=O)N[C@@H](Cc2ccc(O)cc2)C(=O)N[C@@H](Cc2ccccc2)C(=O)N[C@@H](CCC(N)=O)C(=O)N[C@@H](CC(N)=O)C(=O)N1)C(=O)NCC(N)=O` [Terlipressin, reference compound] (H-GGGCYFQNCPKG-NH2; disulfide 4-9), the “binding affinity to carrier, in words” value was “does not bind Terlipressin with strong affinity”. In addition, the Kd under setting [1] is over 100 µM.
In the case of “Glucagon Like Peptide 2: Glucagon Like Peptide 2 (GLP-2; 3 kDa), load molecule”, under setting [1], the Kd was under 0.5 µM.
Turning to “Human Growth Hormone: recombinant human growth hormone (26 kDa), load molecule”, the “binding affinity to carrier, in words” value is listed as “does not bind hGH with strong affinity”. Also, the Kd under setting [1] is over 100 µM.
As for “Islet Amyloid Polypeptide: Islet Amyloid Polypeptide (IAPP or Amylin; 3.6 kDa), load molecule (KCNTATCATQRLANFLVHSSNNFGAILSSTNVGSNTY; Islet amyloid polypeptide; UniProt P10997 34-70, looked up)”, the “binding affinity to carrier, in words” value is given as “binds IAPP with strong affinity”. In addition, the Kd under setting [1] was under 900 µM. Besides, the Kd (Ten mg/ml (30 uM) of Carrier, read-out: Kd (Scatchard plot)) worked out at 0.9 µM.
On to Leptin: Leptin (16 kDa), load molecule, for which the “binding affinity to carrier, in words” value is recorded as “binds Leptin with strong affinity”. Also, where the note is “33 mg/ml (10 uM) of Carrier, read-out: Kd (Scatchard plot)”, the Kd came to 0.7 µM. The Kd under setting [1] is under 0.8 µM.
Regarding “Vasoactive Intestinal Peptide: Vasoactive Intestinal Peptide (VIP), load molecule”, the “binding affinity to carrier, in words” value is given as “high affinity”. For the same compound, the “binding affinity to carrier, in words” value (listed as VIP) is “binds VIP with strong affinity”.
